Measured values taken from PMC7497641, “Neurotropic activity and safety of methylene-cycloalkylacetate (MCA) derivative 3-(3-allyl-2-methylenecyclohexyl) propanoic acid” (ACS Chemical Neuroscience, 2020).

Experiments:
[1] = target: T1, 5-Hydroxy-tryptamine (Serotonin) Receptor 3A (HTR3A) (Homo sapiens, UniProt P46098); assay: SAFETYscan Ion channel assay; assay type: cell-based
T1 construct: host or cells: unnamed DiscoverX cell line

[2] = target: 5-Hydroxy tryptamine (Serotonin) Receptor 2A (HTR2A) (Homo sapiens, UniProt P28223); assay: SAFETYscan GPCR Calcium Flux; assay type: cell-based
[3] = target: T2, Opioid Receptor Kappa 1 (OPRK1) (Homo sapiens, UniProt P41145); assay: SAFETYscan GPCR cAMP; assay type: cell-based
T2 construct: host or cells: cAMP Hunter cell lines

[4] = target: Nuclear Hormone Glucocorticoid Receptor (GR) (Homo sapiens, UniProt P04150); assay: SAFETYscan Nuclear Hormone Receptor assay; assay type: cell-based; conditions: read-out: RC50 (the source's name)
[5] = target: Adrenergic Receptor β2 (ADRB2) (Homo sapiens, UniProt P07550); assay: SAFETYscan GPCR cAMP; assay type: cell-based
neurons = assay: Cytotoxicity to neurons; assay type: cell-based; conditions: 10 μM
Text: “Off-target” activity refers to all other targets for which a molecule has affinity with the outcome of activation, blockade, or modulation, resulting in a functional effect. In many cases, the off-target activity of the molecule can be sub-clinical and not pose a concern. On the other hand, the off-target activity may result in side effects of the active agent that range from a minor nuisance to a severe adverse event, resulting with drug withdrawal.[33] Therefore, in vitro pharmacological profiling is increasingly being used earlier in the drug discovery process to identify undesirable off-target activity profiles that could hinder or halt the development of a candidate drug.[34] With this background, assessing the specificity of HU-MCA-13 early in its development using highly relevant and predictive functional assays, which allow more informed decisions about its safety, ultimately lead to the development of an effective neurotropic drug. […] Cell death was evaluated by morphological appearance of the cells and release of LDH into the medium, in the absence and presence of different concentrations of synthetic compounds as previously described.[52]

[6] = target: T3, Dopamine Receptor D2 (DRD2S) (Homo sapiens, UniProt P14416); assay: SAFETYscan GPCR cAMP; assay type: cell-based
T3 construct: host or cells: cAMP Hunter cell lines

[7] = target: T4, Kv11.1, the alpha subunit of a potassium ion channel (hERG) (Homo sapiens, UniProt Q12809); assay: cell-based; conditions: Blocker
T4 construct: host or cells: unnamed DiscoverX cell line

[8] = target: Muscarinic acetylcholine Receptor M1 (CHRM1) (Homo sapiens, UniProt P11229); assay: cell-based; conditions: Calcium Flux, read-out: RC50 (the source's name)
[9] = target: T5, Opioid Receptor Delta 1 (OPRD1) (Homo sapiens, UniProt P41143); assay: SAFETYscan GPCR cAMP; assay type: cell-based
T5 construct: host or cells: cAMP Hunter cell lines

[10] = tested on: dorsal root ganglion (DRG) sensory neurons; assay: DRG neurite outgrowth assay; assay type: cell-based, mice; conditions: HU-MCA-13 5 μM, DRG explants, 5 days
Text: In the second step, we study the effect of HU-MCA-13 on ex-vivo sensory neuronal cultures obtained from dissociated dorsal root ganglia (DRG), a model in which the neurons tend to extend neurites in culture at a high rate, and all neurite outgrowths are axons, as confirmed by immune staining for cytoskeletal-specific proteins.[27] […] By contrast, NGF induced a strong, 3.5-fold increase in neurite outgrowth to a value of 700 μm (Figure 1 and Figure 3B) and a ratio of 8.5 between the area covered by neurites and that covered by the DRG ganglia (Figure 3C). Similarly, HU-MCA-13 induced a 2.5 fold increase in neurite outgrowth to a value of about 500 μm (Figure 1 and Figure 3B) and a ratio of 5.4 between the area covered by neurites and that covered by the DRG ganglia (Figure 3C). […] These experiments extend the neurotropic effect of MCA-13 observed with PC12 dopaminergic neuronal cultures to DRG sensory neurons.
To perform these experiments, 10 DRGs were excised under sterile conditions and transferred to Dulbecco’s Modified Eagle Medium (DMEM) containing 0.25% Type IV collagenase in at 37 °C for 45 min, followed by a 20 min incubation with 0.025% trypsin in DMEM, to digest the associated connective tissue surrounding the neurons. After plating the ganglia onto collagen (50 μg/mL)/laminin mixture (5 μg/mL)-coated tissue culture wells for 24 h, DRG neurons were cultured for additional 1–7 days in fresh Neurobasal A/B27 medium[27] containing either 50 ng/mL NGF (positive control), medium containing 1% DMSO (negative control) or 5 μM MCA-13. The living cultures were photographed and thereafter, the ganglia were immunostained for β tubulin III and again photographed using a fluorescent microscope. A researcher blinded to the experimental conditions performed image analysis, and the neurite outgrowth length (in micrometers) was measured.[50]

T5 sequence (P41143 whole entry): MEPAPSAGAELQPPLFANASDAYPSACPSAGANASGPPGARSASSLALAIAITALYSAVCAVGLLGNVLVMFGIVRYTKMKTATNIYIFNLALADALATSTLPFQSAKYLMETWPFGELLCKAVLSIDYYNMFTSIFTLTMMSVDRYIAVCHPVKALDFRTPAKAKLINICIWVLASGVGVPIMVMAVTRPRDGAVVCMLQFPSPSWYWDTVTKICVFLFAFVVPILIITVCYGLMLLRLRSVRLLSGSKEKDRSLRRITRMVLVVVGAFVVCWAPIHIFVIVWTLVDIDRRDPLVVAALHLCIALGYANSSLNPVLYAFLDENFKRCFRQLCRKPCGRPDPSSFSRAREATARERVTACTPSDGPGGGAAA
Sequence of Adrenergic Receptor β2 (ADRB2) (P07550 whole entry): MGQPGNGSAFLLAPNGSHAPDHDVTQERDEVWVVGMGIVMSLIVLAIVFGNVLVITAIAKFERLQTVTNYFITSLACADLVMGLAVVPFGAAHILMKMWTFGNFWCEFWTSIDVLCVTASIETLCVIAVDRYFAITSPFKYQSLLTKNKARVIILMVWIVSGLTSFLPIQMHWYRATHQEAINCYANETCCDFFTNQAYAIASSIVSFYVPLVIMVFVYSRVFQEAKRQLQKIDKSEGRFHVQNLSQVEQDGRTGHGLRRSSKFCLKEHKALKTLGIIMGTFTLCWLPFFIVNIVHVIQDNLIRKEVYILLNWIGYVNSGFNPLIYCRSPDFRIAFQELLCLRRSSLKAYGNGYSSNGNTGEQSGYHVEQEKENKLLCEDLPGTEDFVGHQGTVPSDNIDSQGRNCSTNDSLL
T1 sequence (P46098 24-478): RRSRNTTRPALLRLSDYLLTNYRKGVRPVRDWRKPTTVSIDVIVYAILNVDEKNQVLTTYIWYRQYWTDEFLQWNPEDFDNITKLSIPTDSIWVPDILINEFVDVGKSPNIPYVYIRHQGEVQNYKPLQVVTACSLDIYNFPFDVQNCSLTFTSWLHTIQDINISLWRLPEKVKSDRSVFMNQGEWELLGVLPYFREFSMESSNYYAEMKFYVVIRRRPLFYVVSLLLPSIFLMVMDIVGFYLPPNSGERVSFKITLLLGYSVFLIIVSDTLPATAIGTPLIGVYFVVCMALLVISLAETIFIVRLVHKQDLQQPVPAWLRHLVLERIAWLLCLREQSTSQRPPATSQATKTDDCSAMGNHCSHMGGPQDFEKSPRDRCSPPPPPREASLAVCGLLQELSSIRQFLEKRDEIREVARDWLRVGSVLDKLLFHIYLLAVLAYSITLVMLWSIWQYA
Sequence of Muscarinic acetylcholine Receptor M1 (CHRM1) (P11229 whole entry): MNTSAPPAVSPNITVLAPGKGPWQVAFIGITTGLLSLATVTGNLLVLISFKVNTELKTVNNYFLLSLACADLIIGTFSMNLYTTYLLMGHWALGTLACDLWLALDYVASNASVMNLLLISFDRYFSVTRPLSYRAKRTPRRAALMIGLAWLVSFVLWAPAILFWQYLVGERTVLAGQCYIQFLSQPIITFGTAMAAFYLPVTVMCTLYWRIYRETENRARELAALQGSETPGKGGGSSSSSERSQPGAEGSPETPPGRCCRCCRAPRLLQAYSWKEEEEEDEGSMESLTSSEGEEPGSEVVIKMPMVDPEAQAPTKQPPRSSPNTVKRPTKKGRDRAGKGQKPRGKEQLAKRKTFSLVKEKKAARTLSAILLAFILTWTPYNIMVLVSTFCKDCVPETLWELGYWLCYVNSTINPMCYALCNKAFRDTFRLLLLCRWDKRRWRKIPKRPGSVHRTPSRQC
Sequence of 5-Hydroxy tryptamine (Serotonin) Receptor 2A (HTR2A) (P28223 whole entry): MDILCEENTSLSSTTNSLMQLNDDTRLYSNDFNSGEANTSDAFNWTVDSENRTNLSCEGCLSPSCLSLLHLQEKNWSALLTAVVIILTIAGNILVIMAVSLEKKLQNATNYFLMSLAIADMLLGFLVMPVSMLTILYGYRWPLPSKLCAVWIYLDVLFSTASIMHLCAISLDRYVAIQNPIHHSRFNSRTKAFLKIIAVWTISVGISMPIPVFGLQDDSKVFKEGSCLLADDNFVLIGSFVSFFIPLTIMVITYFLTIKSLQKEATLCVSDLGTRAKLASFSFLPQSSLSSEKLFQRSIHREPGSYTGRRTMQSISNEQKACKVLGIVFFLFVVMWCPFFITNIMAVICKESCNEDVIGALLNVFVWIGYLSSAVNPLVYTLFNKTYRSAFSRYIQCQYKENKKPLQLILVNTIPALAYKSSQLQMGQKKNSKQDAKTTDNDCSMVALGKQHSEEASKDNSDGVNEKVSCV
T2 sequence (P41145 whole entry): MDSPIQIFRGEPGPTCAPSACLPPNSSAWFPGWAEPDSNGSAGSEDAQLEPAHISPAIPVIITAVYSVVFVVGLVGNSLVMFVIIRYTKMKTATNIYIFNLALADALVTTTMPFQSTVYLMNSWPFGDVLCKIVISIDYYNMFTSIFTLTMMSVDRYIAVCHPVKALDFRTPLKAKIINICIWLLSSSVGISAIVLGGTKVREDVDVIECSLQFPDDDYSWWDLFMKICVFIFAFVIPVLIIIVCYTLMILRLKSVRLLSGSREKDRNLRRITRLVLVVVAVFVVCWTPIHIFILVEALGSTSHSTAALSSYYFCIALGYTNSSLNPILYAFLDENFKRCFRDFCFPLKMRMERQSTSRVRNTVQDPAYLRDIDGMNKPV
T3 sequence (P14416 1-414 isoform P14416-2): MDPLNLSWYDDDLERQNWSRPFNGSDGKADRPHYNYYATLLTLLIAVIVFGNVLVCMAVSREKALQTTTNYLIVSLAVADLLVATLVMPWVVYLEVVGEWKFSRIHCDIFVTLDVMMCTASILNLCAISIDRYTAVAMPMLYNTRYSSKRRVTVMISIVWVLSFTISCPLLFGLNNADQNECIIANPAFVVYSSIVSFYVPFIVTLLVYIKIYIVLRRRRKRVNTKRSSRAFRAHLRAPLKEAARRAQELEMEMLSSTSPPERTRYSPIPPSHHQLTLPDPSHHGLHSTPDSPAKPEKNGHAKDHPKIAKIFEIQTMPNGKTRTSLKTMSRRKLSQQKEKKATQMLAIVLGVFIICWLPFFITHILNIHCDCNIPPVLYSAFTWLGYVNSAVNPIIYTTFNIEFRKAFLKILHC
Sequence of Nuclear Hormone Glucocorticoid Receptor (GR) (P04150 whole entry): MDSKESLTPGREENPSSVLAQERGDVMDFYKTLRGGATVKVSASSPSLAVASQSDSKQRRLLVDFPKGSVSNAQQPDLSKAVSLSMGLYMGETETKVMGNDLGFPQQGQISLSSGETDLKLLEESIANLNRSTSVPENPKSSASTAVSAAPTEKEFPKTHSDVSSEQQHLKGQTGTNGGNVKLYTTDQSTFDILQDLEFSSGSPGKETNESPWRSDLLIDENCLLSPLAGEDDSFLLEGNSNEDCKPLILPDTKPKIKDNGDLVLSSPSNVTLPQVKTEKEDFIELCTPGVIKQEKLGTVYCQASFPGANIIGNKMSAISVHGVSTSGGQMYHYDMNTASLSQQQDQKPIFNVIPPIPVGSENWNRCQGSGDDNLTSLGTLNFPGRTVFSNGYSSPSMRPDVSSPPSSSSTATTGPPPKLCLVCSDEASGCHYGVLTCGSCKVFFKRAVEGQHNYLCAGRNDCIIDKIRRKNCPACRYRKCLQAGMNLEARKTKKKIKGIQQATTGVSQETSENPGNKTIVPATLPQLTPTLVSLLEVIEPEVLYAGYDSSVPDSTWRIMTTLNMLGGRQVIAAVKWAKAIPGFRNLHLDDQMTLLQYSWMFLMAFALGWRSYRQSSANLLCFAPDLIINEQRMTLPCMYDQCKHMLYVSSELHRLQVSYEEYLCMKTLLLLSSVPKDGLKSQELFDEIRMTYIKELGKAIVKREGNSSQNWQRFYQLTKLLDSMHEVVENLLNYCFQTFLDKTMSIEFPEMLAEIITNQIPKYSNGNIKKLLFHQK
T4 sequence (Q12809 whole entry): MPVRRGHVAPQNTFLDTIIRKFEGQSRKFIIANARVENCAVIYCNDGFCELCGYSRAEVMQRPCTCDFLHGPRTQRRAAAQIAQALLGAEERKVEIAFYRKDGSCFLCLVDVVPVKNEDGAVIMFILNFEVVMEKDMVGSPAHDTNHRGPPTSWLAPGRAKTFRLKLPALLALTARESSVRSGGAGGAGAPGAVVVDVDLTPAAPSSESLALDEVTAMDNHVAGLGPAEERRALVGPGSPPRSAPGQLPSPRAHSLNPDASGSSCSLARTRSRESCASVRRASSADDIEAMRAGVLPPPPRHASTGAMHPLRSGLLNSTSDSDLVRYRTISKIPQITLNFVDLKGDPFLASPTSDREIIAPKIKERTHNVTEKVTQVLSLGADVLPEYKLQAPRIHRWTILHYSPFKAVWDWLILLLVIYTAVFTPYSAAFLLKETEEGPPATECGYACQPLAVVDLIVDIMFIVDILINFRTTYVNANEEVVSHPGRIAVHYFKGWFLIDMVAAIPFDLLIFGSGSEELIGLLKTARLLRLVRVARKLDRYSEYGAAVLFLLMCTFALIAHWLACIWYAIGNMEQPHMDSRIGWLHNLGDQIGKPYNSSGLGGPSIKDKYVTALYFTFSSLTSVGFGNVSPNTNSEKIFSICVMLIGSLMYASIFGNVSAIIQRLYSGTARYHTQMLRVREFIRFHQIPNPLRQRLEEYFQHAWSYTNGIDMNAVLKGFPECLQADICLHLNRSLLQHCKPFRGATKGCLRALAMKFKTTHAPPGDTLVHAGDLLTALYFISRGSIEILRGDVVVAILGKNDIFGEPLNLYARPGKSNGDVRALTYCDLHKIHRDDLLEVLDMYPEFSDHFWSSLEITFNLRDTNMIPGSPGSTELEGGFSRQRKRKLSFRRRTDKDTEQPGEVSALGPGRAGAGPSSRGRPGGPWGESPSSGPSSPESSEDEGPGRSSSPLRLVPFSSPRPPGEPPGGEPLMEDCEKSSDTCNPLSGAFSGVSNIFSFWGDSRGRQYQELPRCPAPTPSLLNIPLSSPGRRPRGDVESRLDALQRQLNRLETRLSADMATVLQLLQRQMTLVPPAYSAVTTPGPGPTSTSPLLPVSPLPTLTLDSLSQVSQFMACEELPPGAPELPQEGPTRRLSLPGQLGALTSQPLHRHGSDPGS

Question: What does the source list for C=CCC1CCCC(CCC(=O)O)C1=C (stereo not shown) [HU-MCA-13, 3-(3-allyl-2-methylenecyclohexyl)propanoic acid]?
Answer: EC50 [1]: > 10 µM; IC50 [1]: > 10 µM; EC50 [2]: > 10 µM; IC50 [2]: > 10 µM; EC50 [3]: > 10 µM; IC50 [3]: > 10 µM; EC50 ([4]; Agonist): > 10 µM; IC50 ([4]; Antagonist): > 10 µM; EC50 [5]: > 10 µM; IC50 [5]: > 10 µM; toxicity to neurons (neurons): not toxic; EC50 [6]: > 10 µM; IC50 [6]: > 10 µM; MCA-13 Max. Responce ([7]; 10 μM): 0%; IC50 ([7]; read-out: RC50 (the source's name)): > 10 µM; EC50 ([8]; Agonist): > 10 µM; IC50 ([8]; Antagonist): > 10 µM; EC50 [9]: > 10 µM; IC50 [9]: > 10 µM; neurite outgrowth length [10]: about 500 μm; ratio between the area covered by neurites and that covered by the DRG ganglia [10]: 5.4; fold increase in neurite outgrowth ([10]; versus control medium): 2.5 fold
